From patent publication US8877707B2, “Inhibitors of HCV NS5A” (Presidio Pharmaceuticals, Inc., priority 2010, dated 2014) come the findings set out here.

The subject of the test is HCV genotype 1b replicon in Huh 7 cells. In words: HCV replicon assay (1b_Huh-Luc/Neo-ET cell line, luciferase readout). It is filed as cell-based. The note with it: Hepatitis C virus, genotype 1b replicon, Huh 7 cells, 72 h, luciferase, read-out: Inhibition of HCV genotype 1b. The gist of the method:
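Replicon level was read as luciferase signal after 72 h compound exposure, triplicate wells, starting the day after cells were plated. Cell line: 1b_Huh-Luc/Neo-ET. Values normalised to control as percent, and EC50 fitted with a variable-slope sigmoid; determinations repeated.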

Molecules are shown by their SMILES. Where two headings read alike, the source gives them in different places.

As to `CC(C)(C)OC(=O)N1CCCC1c1ncc(C23CCC(c4ccc5cc(-c6c[nH]c([C@@H]7CCCN7C(=O)OC(C)(C)C)n6)ccc5n4)(CC2)CC3)[nH]1` (some centres unmarked) [compound 268], the EC50 (Table 1) lay within 10 to 999 nM. For `COC(=O)N[C@H](C(=O)N1CCC[C@H]1c1nc(-c2ccc3c(c2)CCN(c2c(F)cc(-c4cnc([C@@H]5CCCN5C(=O)[C@@H](NC(=O)OC)C(C)C)[nH]4)cc2F)C3)c[nH]1)C(C)C` [compound 269], the EC50 (Table 1) was below 1 nM.

For the molecule `COC(=O)N[C@@H](C(=O)N1CCC[C@H]1c1nc(-c2ccc3c(c2)CCN(c2c(F)cc(-c4cnc([C@@H]5CCCN5C(=O)[C@H](NC(=O)OC)c5ccccc5)[nH]4)cc2F)C3)c[nH]1)c1ccccc1` [compound 270], the EC50 (Table 1) is below 1 nM. As for `COC(=O)N[C@H](C(=O)N1CCC[C@H]1c1nc(-c2ccc3c(c2)CCN(c2c(F)cc(-c4cnc([C@@H]5CCCN5C(=O)[C@@H](NC(=O)OC)C5CC5)[nH]4)cc2F)C3)c[nH]1)C1CC1` [compound 271], the EC50 (Table 1) was below 1 nM. As for `COC(=O)N[C@@H](C)C(=O)N1CCC[C@H]1c1nc(-c2ccc3c(c2)CCN(c2c(F)cc(-c4cnc([C@@H]5CCCN5C(=O)[C@H](C)NC(=O)OC)[nH]4)cc2F)C3)c[nH]1` [compound 272], the EC50 (Table 1) is below 1 nM. With `COC(=O)N[C@@H](C)C(=O)N1CCC[C@H]1c1nc(-c2ccc3nc(N4CCC(c5cnc([C@@H]6CCCN6C(=O)[C@H](C)NC(=O)OC)[nH]5)CC4)ccc3c2)c[nH]1` [compound 273], the EC50 (Table 1) fell in the range of 1 to 9.9 nM. On the same count and under the same terms, to `COC(=O)N[C@H](C(=O)N1CCC[C@H]1c1nc(-c2ccc3nc(N4CCC(c5cnc([C@@H]6CCCN6C(=O)[C@@H](NC(=O)OC)C6CC6)[nH]5)CC4)ccc3c2)c[nH]1)C1CC1` [compound 274] belongs 1 to 9.9 nM; to `COC(=O)N[C@H](C(=O)N1CCC[C@H]1c1nc(-c2ccc3nc(N4CCC(c5cnc([C@@H]6CCCN6C(=O)[C@@H](NC(=O)OC)C(C)C)[nH]5)CC4)ccc3c2)c[nH]1)C(C)C` [compound 275], below 1 nM; to `COC(=O)N[C@H](C(=O)N1CCC[C@H]1c1nc2ccc(-c3ccc4cc(-c5ccc6nc([C@@H]7CCCN7C(=O)[C@@H](NC(=O)OC)C(C)C)[nH]c6c5)ccc4c3)cc2[nH]1)C(C)C` [compound 276], below 1 nM. Still for that read-out and setting: to `COC(=O)N[C@H](C(=O)N1CCC[C@H]1c1nc2ccc(-c3cccc4c(-c5ccc6nc([C@@H]7CCCN7C(=O)[C@@H](NC(=O)OC)C(C)C)[nH]c6c5)cccc34)cc2[nH]1)C(C)C` [compound 277] belongs below 1 nM; to `COC(=O)N[C@@H](C)C(=O)N1CCC[C@H]1c1nc2ccc(-c3ccc4cc(-c5ccc6nc([C@@H]7CCCN7C(=O)[C@H](C)NC(=O)OC)[nH]c6c5)ccc4c3)cc2[nH]1` [compound 278], below 1 nM; to `COC(=O)N[C@H](C(=O)N1CCC[C@H]1c1nc2ccc(-c3ccc4cc(-c5ccc6nc([C@@H]7CCCN7C(=O)[C@@H](NC(=O)OC)C7CCOCC7)[nH]c6c5)ccc4c3)cc2[nH]1)C1CCOCC1` [compound 279], below 1 nM.

As for `COC(=O)N[C@H](C(=O)N1CCC[C@H]1c1nc2ccc(-c3ccc4nc(-c5ccc6nc([C@@H]7CCCN7C(=O)[C@@H](NC(=O)OC)C(C)C)[nH]c6c5)ccc4c3)cc2[nH]1)C(C)C` [compound 280], the EC50 (Table 1) is below 1 nM. Regarding `COC(=O)N[C@H](C(=O)N1CCC[C@H]1c1nc2ccc(-c3ccc4cc(-c5ccc6nc([C@@H]7CCCN7C(=O)[C@@H](NC(=O)OC)C(C)C)[nH]c6c5)ncc4c3)cc2[nH]1)C(C)C` [compound 281], the EC50 (Table 1) was below 1 nM. Take `COC(=O)N[C@H](C(=O)N1CCC[C@H]1c1nc2ccc(-c3ccc4cc(-c5ccc6nc([C@@H]7CCCN7C(=O)[C@@H](NC(=O)OC)C7CCOCC7)[nH]c6c5)ccc4c3)cc2[nH]1)C(C)C` [compound 282]: the EC50 (Table 1) was below 1 nM. For `COC(=O)N[C@H](C(=O)N1CCC[C@H]1c1nc2ccc(-c3ccc4cc(-c5ccc6nc([C@@H]7CCCN7C(=O)[C@H](NC(=O)OC)c7ccccc7)[nH]c6c5)ccc4c3)cc2[nH]1)C(C)C` [compound 283], the EC50 (Table 1) was below 1 nM. The same measure, in the same setting: to `COC(=O)N[C@H](C(=O)N1CCC[C@H]1c1nc2ccc(-c3ccc4cc(-c5ccc6nc([C@@H]7CCCN7C(=O)[C@@H](NC(=O)OC)C7CCOCC7)[nH]c6n5)ccc4c3)nc2[nH]1)C1CCOCC1` [compound 284] belongs 1 to 9.9 nM. Same read-out and setting: then `COC(=O)N[C@@H](C(=O)N1CCC[C@H]1c1nc(-c2ccc3nc(C4CCC(c5cnc([C@@H]6CCCN6C(=O)[C@H](NC(=O)OC)c6ccccc6)[nH]5)CC4)ccc3c2)c[nH]1)c1ccccc1` (some centres unmarked) [compound 286], with below 1 nM; and `COC(=O)N[C@H](C(=O)N1CCC[C@H]1c1nc(-c2ccc3c(=O)n(-c4ccc(-c5cnc([C@@H]6CCCN6C(=O)[C@@H](NC(=O)OC)C(C)C)[nH]5)cc4)ccc3c2)c[nH]1)C(C)C` [compound 287], with below 1 nM.

In the case of `COC(=O)N[C@@H](C(=O)N1CCC[C@H]1c1nc(-c2ccc3c(=O)n(-c4ccc(-c5cnc([C@@H]6CCCN6C(=O)[C@H](NC(=O)OC)c6ccccc6)[nH]5)cc4)ccc3c2)c[nH]1)c1ccccc1` [compound 288], the EC50 (Table 1) was below 1 nM. With `COC(=O)N[C@@H](C(=O)N1CCC[C@H]1c1nc(-c2ccc3c(c2)CCN(c2ccc(-c4cnc([C@@H]5CCCN5C(=O)[C@H](NC(=O)OC)c5ccccc5)[nH]4)cc2)C3=O)c[nH]1)c1ccccc1` [compound 289], the EC50 (Table 1) is below 1 nM.

For `COC(=O)N[C@H](C(=O)N1CCC[C@H]1c1ncc(-c2ccc(N3Cc4cc(-c5cnc([C@@H]6CCCN6C(=O)[C@@H](NC(=O)OC)C(C)C)[nH]5)ccc4C3=O)cc2)[nH]1)C(C)C` [compound 290], the EC50 (Table 1) was below 1 nM.

In the case of `COC(=O)N[C@H](C(=O)N1CCC[C@H]1c1nc(C2CNc3cc(-c4ccc(-c5cnc([C@@H]6CCCN6C(=O)[C@H](NC(=O)OC6CCOCC6)c6ccccc6)[nH]5)cc4)ccc3C2)c[nH]1)C(C)C` (some centres unmarked) [compound 291], the EC50 (Table 1) was below 1 nM. As to `COC(=O)N[C@H](C(=O)N1CCC[C@H]1c1ncc(-c2ccc3nc(-c4ccc5c(ccc6nc([C@@H]7CCCN7C(=O)[C@@H](NC(=O)OC)C(C)C)[nH]c65)c4)ccc3c2)[nH]1)C(C)C` [compound 296], the EC50 (Table 1) was below 1 nM. For the molecule `COC(=O)N[C@H](C(=O)N1CCC[C@H]1c1nc2ccc3cc(-c4ccc5cc(-c6cnc([C@@H]7CCCN7C(=O)[C@@H](NC(=O)OC)C7CCOCC7)[nH]6)ccc5n4)ccc3c2[nH]1)C(C)C` [compound 297], the EC50 (Table 1) is below 1 nM. The same measure, in the same setting: to `COC(=O)N[C@H](C(=O)N1CCC[C@H]1c1nc2ccc3cc(-c4ccc5cc(-c6cnc([C@@H]7CCCN7C(=O)[C@H](NC(=O)OC)c7ccccc7)[nH]6)ccc5n4)ccc3c2[nH]1)C(C)C` [compound 298] belongs below 1 nM; to `COC(=O)N[C@H](C(=O)N1CCC[C@H]1c1nc2ccc3cc(-c4ccc5cc(-c6cnc([C@@H]7CCCN7C(=O)[C@H](NC(=O)OC7CCOCC7)c7ccccc7)[nH]6)ccc5n4)ccc3c2[nH]1)C(C)C` [compound 299], below 1 nM. Consider `COC(=O)N[C@H](C(=O)N[C@@H](C)c1ncc(-c2ccc3cc(-c4ccc(-c5cnc([C@@H]6CCCN6C(=O)[C@@H](NC(=O)OC)C(C)C)[nH]5)cc4)ccc3c2)[nH]1)C(C)C` [compound 304], for which, where the note is “Table 2”, the EC50 was below 1 nM. The same measure, in the same setting: then `COC(=O)N[C@H](C(=O)N1CCC[C@H]1c1ncc(-c2ccc(-c3ccc4cc(-c5cnc([C@@H]6C[C@@H](O)CN6C(=O)[C@@H](NC(=O)OC)C(C)C)[nH]5)ccc4c3)cc2)[nH]1)C(C)C` [compound 305], with below 1 nM.
